Values of other authors in patent publication US7534771B2, “Tricyclic-nucleoside prodrugs for treating viral infections” (SmithKline Beecham Corporation, priority 2005, dated 2009).

Details: patients treated at currently recommended doses

NC(=O)c1ncn([C@@H]2O[C@H](CO)[C@@H](O)[C@H]2O)n1 [Ribavirin]
patients with significant hemolysis: 10-20%
